Experimental data published in patent US6608032B1, “Medicinal compositions” (Takara Shuzo Co., Ltd., priority 1999, dated 2003).

Key:
[1] = test system: RAW264.7 cells; experiment: LPS-induced IL-10 production in RAW264.7 cells; format: cell-based; settings: 5 μl of 10 mM solution per 0.5 ml, 5 hours before LPS; 18 hours; FIG. 18
Method: RAW264.7 cells (ATCC TIB 71) were suspended in Dulbecco's modified Eagle's medium (Bio Whittaker, 12-604F) containing 10% fetal calf serum (Gibco) at a concentration of 3×10^5 cells/ml. 0.5 ml of the suspension was added to each well of a 48-well microtiter plate and the plate was incubated at 37° C. overnight in the presence of 5% CO2. 5 μl of a solution containing agarobiose or agarohexaose in Referential Example 1 at a concentration of 10 mM in water was added to the well. After incubation for additional 5 hours, 5 μl of a solution of lipopolysaccharide (LPS, Sigma, L-2012) at a concentration of 100 μg/ml in water was added the well. After incubation for 18 hours, a culture supernatant was collected. The content of interleukin 10 (IL-10) in the culture supernatant was measured using enzyme immuno sandwich assay. As a control, a group to which the sample or the LPS aqueous solution was not added was provided. All of the measurements were carried out in duplicate.

[2] = test system: human FGF-β; experiment: FGF-β production from DSEK cells (ELISA); format: cell-based; settings: DSEK culture supernatant
Method: 150 μl of a culture supernatant was collected from a well containing a culture of DSEK cells over time at intervals of 24 hours. The effects of agarobiose on the production (expression) of cytokines (human TGF-β, human FGF-β and human IL-10) from the cell were determined using ELISA kits specific for the respective cytokines (from Intergen for human FGF-β and human IL-10; and from Promega for human TGF-β).

[3] = test system: enzymes involved in the synthesis of prostaglandin E2 from arachidonic acid; experiment: Prostaglandin E2 generation from arachidonic acid, sample added directly to crude enzyme fraction; format: biochemical; settings: 1 μL of 100 mM agarobiose, 100 mM agarohexaose, 10 mM DGE or 13 mM nimesulide added to 100 μL crude enzyme fraction; FIG. 15
Method: 2.5 μL of 200 mM aqueous solution of glutathione, 2.5 μL of a suspension containing L-adrenaline at a concentration of 200 mM in water, and 1 μL of 100 mM aqueous solution of agarobiose, 100 mM aqueous solution of agarohexaose or 10 mM aqueous solution of DGE as a sample were added to 100 μL of the control sample from the crude enzyme fraction prepared in Example 15. 1 μL of water was added as a negative control. 1 μL of 13 mM nimesulide (Cayman, 70640) solution was added as a positive control. 1 μL of 3 mM arachidonic acid solution was then added to start the reaction. The mixture was reacted at 37° C. for 5 minutes. The reaction was stopped by heating at 100° C. for 2 minutes. The content of prostaglandin E2 in the reaction mixture was measured using Prostaglandin E2 ELISA Kit.

[4] = test system: DSEK cells; experiment: Growth of DSEK cells (in vitro rheumatoid model), WST-1; format: cell-based, human
Method: DSEK cell is a fibroblast cell line established from a synovial membrane of a human patient with chronic rheumatism and is held at Department of Second Internal Medicine, Integrated Medical Center, Saitama Collage of Medicine as an in vitro rheumatoid model. DSEK cells were cultured in Iscov-MEM medium (IMDM: Gibco-BRL) containing 10% FBS (Bio Whittaker) at 37° C. in the presence of 5% CO2 to saturation of culture vessel. The cells were suspended in the same medium at a concentration of 3×10^4 cells/ml using a trypsin-EDTA solution (Bio Whittaker). 200 μl of the suspension was dispensed into each well of a 96-well microtiter plate (Falcon). […]
10 μl of Premix WST-1 (Takara Shuzo, MK400) was added to one of the wells at intervals of 24 hours up to 72 hours after the medium change. The mixture was reacted at 37° C. for 3.5 hours. The degree of cell growth was expressed by a value obtained by subtracting the absorbance at 650 nm (A650) from the absorbance at 450 nm (A450).

[5] = test system: α-glucosidase; experiment: α-glucosidase inhibition, crude enzyme preparation from rat small intestine mucous membrane; format: biochemical
Method: (2) A crude enzyme preparation obtained from rat small intestine mucous membrane prepared according to the method as described in Arne Dahlqvist, Anal. Biochem., 7:18-25 (1964) was used to measure the activity of inhibiting α-glucosidase of agarotetraose or agarohexaose prepared in Referential Example 1 in vitro as follows.
For the enzymatic reaction, 80 μl of a solution of sucrose, maltose, treharose or soluble starch as a substrate in 10 mM phosphate buffer (pH 7.0) at a final concentration of 100 mM (0.5% in case of soluble starch) was added to 10 μl of a test sample solution appropriately diluted with the same buffer. 10 μl of the crude enzyme solution prepared from rat small intestine was added thereto. The mixture was reacted at 37° C. for 20 minutes. The enzymatic activity was determined as follows as the amount of glucose generated in the reaction mixture: 3 ml of a reagent for glucose measurement (Wako Pure Chemical Industries) was added to the reaction mixture, reaction was carried out at 37° C. for 5 minutes, and then the absorbance at 505 nm was measured. The inhibitory activity on the digestion of each substrate was expressed as a remaining activity (%) against the control, which was calculated based on the activity measured as described above for each of four different concentrations. The remaining activities (%) on the respective substrates in the presence of agarotetraose are shown in Table 2, whereas the remaining activities (%) on the respective substrates in the presence of agarohexaose are shown in Table 3.

[6] = substrate Soluble starch, 0.2 mM
[7] = substrate Soluble starch, 0.5 mM
[8] = substrate Soluble starch, 1.0 mM
[9] = substrate Soluble starch, 2.0 mM

SMILES | LPS-induced IL-10 production [1] | production of prostaglandin E2 from arachidonic acid [3] | Remaining activity (%) ([5]; substrate Maltose, 0.2 mM) | Remaining activity (%) ([5]; substrate Maltose, 0.5 mM) | Remaining activity (%) ([5]; substrate Maltose, 1.0 mM) | Remaining activity (%) ([5]; substrate Maltose, 2.0 mM) | Remaining activity (%) [5, 6] [%] | Remaining activity (%) [5, 7] [%] | Remaining activity (%) [5, 8] [%] | Remaining activity (%) [5, 9] [%] | Remaining activity (%) ([5]; substrate Trehalose, 0.2 mM) | Remaining activity (%) ([5]; substrate Trehalose, 0.5 mM) | Remaining activity (%) ([5]; substrate Trehalose, 1.0 mM) | Remaining activity (%) ([5]; substrate Trehalose, 2.0 mM) | also measured
OC[C@H]1O[C@@H](O[C@H]2[C@H]3OC[C@@H]2OC(O)[C@H]3O)[C@H](O)[C@@H](O)[C@H]1O (mixture of isomers) [Agarobiose, agarobiose] | inhibition of LPS-induced IL-10 production | not suppressed | – | – | – | – | – | – | – | – | – | – | – | – | production of human FGF-β [2]: activities of inhibiting the production; Degree of cell growth (A450-650) ([4]; 50 μM, 24 hr): 1.00 A450-650; Degree of cell growth (A450-650) ([4]; 50 μM, 48 hr): 1.49 A450-650; Degree of cell growth (A450-650) ([4]; 50 μM, 72 hr): 1.27 A450-650; Degree of cell growth (A450-650) ([4]; 100 μM, 24 hr): 0.88 A450-650; Degree of cell growth (A450-650) ([4]; 100 μM, 48 hr): 1.87 A450-650; Degree of cell growth (A450-650) ([4]; 100 μM, 72 hr): 1.26 A450-650; Degree of cell growth (A450-650) ([4]; 200 μM, 24 hr): 0.89 A450-650; Degree of cell growth (A450-650) ([4]; 200 μM, 48 hr): 1.50 A450-650; Degree of cell growth (A450-650) ([4]; 200 μM, 72 hr): 0.93 A450-650; Degree of cell growth (A450-650) ([4]; 400 μM, 24 hr): 0.87 A450-650; Degree of cell growth (A450-650) ([4]; 400 μM, 48 hr): 0.52 A450-650; Degree of cell growth (A450-650) ([4]; 400 μM, 72 hr): 0.47 A450-650; Degree of cell growth (A450-650) ([4]; 800 μM, 24 hr): 0.54 A450-650; Degree of cell growth (A450-650) ([4]; 800 μM, 48 hr): 0.45 A450-650; Degree of cell growth (A450-650) ([4]; 800 μM, 72 hr): 0.56 A450-650; IC50 ([4]; 72 hours, read-out: concentration that resulted in the inhibition of the growth of half cells (IC50)): 169 µM
OCC1OC(OC2C3COC2C(O)C(OC2C(O)C(CO)OC(OC4C5COC4C(O)C(OC4C(O)C(CO)OC(OC6C7COC6C(O)C(O)O7)C4O)O5)C2O)O3)C(O)C(O)C1O (stereo not drawn) [Agarohexaose, agarohexaose] | inhibition of LPS-induced IL-10 production | not suppressed | 98 | 100 | 91 | 92 | 100 | 97 | 96 | 97 | 100 | 100 | 100 | 93 | –
OCC1OC(OC2C3COC2C(O)C(OC2C(O)C(CO)OC(OC4C5COC4C(O)C(O)O5)C2O)O3)C(O)C(O)C1O (stereo not drawn) [Agarotetraose, agarotetraose] | – | – | 97 | 95 | 100 | 98 | 100 | 96 | 97 | 91 | 100 | 100 | 100 | 93 | –
